Earlier results, collected in patent EP3292864A1, “MODIFIED RELEASE TABLET COMPOSITION COMPRISING MIRABEGRON” (Synthon B.V., priority 2017, dated 2018).

- solubility (per BCS class): high solubility
Structure (SMILES): Nc1nc(CC(=O)Nc2ccc(CCNC[C@H](O)c3ccccc3)cc2)cs1 [Mirabegron, (R)-2-(2-aminothiazol-4-yl)-4'-[2-[(2-hydroxy-2-phenylethyl)amino]ethyl]acetic acid anilide]
- solubility in water (assessment report of Betmiga® published by the European Medicines Agency): soluble in water between neutral to acidic pH
